Experimental data as given in PMC6389928, “Biomolecular Interaction, Anti-Cancer and Anti-Angiogenic Properties of Cobalt(III) Schiff Base Complexes” (Scientific Reports, 2019).
Read-outs that look alike come from different tables or passages of the source.

What was measured:
DNA [1] = details: cited from earlier work
DNA [2] = test: Viscosity measurement of DNA; assay type: binding; details: 30.0 ± 0.2 °C, increasing amounts of compound
From the text: The mode of interaction between DNA and complexes has been further confirmed using viscosity measurements. The intercalation between DNA and metal complex causes lengthening of the DNA helix and increases DNA’s relative viscosity. Ethidium bromide (EB) is a well known DNA intercalator which was used as a standard to make sure our viscosity determination was working properly. […] The increase in relative viscosity follows the DNA-intercalating ability and the order of relative viscosity is EB > 2 > 1.
CD spectra of CT–DNA in the absence and presence of cobalt(III) complexes 1 and 2 were recorded in phosphate buffer. Each sample solution was scanned in the range of 200–320 nm, and final CD spectra were generated after averaging three scans subtracting the buffer background. Viscosity experiments were performed using an Ubbelohde viscometer at a constant temperature (30.0 ± 0.2 °C).

A549 lung carcinoma cell = test: MTT assay on A549 cells; details: A549 lung cancer cells, tested separately
From the text: The anti-proliferative property of the complexes 1 and 2 at different concentrations on A549 lung carcinoma cell and monkey kidney epithelial cell Vero was examined by adopting MTT assay (Fig. S7). […] The naked cobalt acetate and ligands salen and salophen were separately tested on A549 cells to understand if metal chelation is the principal basis of the anticancer activity of the complexes.
Culture: Human lung cancer cells (A549) were received from National Centre for Cell Science (NCCS) Pune, India. Vero cells were obtained from ATCC. The cells were grown at humidified atmosphere of 5% CO2 in an incubator at 37 °C (Forma, Thermo Scientific, USA) in DMEM medium (Invitrogen) containing 10% FBS (Sigma-Aldrich, St. Louis, Mo, USA), 100 μg/mL of penicillin and 100 μg/mL streptomycin were used as antibiotics (Himedia, Mumbai, India). […] The cells were seeded in 96 well plates (5000 A549 cells per well) and allowed to attach for 24 h. The cells were then incubated with different concentrations of the metal complexes 1 and 2 dissolved in 100% dimethyl sulfoxide (DMSO) (Sigma-Aldrich) and prepared to a final dilution of 0.02% of DMSO.
In the determination of IC50 value, 0.02% DMSO was used as the solvent control. After the end of incubation period (24 h), the medium was aspirated carefully and replaced with new medium. The formazan formed was dissolved in100 μL of 100% DMSO to each well. The absorbance was monitored at 570 nm using a 96 well plate reader (Bio-Rad, Hercules, California, USA). All experiments were repeated for a minimum of three times when each experiment was done in two replicates.

Row | Compound | Kb (DNA [1]) [M⁻¹] | concentration up to which not cytotoxic (A549 lung carcinoma cell) [µM] | also measured
1 | CC[n+]1c(-c2ccccc2)c2cc(N)ccc2c2ccc(N)cc21 [EB, ethidium bromide, reference compound] |  |  | Kb (DNA [1]; typical classical intercalator): 494000 M⁻¹; effect on relative viscosity of DNA (DNA [2]): significant increase in the viscosity of the DNA solutions
2 | CCCCCCCCCCCCN.CCCCCCCCCCCCN.NCCNCCN.[Cl-].[Co+3].[O-][Cl+3]([O-])([O-])[O-].[O-][Cl+3]([O-])([O-])[O-] [[Co(dien)(DA)2Cl](ClO4)2] | 14318 |  | 
3 | CCCCCCCCCCCCN.NCCNCCN.[Cl-].[Cl-].[Co+3].[O-][Cl+3]([O-])([O-])[O-] [[Co(dien)(DA)Cl2](ClO4)] | 3110.8 |  | 
4 | CCCCCCCCCCCN.[Cl-].[Co+3].[O-][Cl+3]([O-])([O-])[O-].[O-][Cl+3]([O-])([O-])[O-].c1ccc(-c2ccccn2)nc1.c1ccc(-c2ccccn2)nc1 [cis-[Co(bpy)2(C11H23NH2)Cl](ClO4)2] | 22100 |  | 
5 | CCCCCCCCCCCCCCN.[Cl-].[Co+3].[O-][Cl+3]([O-])([O-])[O-].[O-][Cl+3]([O-])([O-])[O-].c1ccc(-c2ccccn2)nc1.c1ccc(-c2ccccn2)nc1 [cis-[Co(bpy)2(C14H29NH2)Cl](ClO4)2] | 28600 |  | 
6 | CCCCCCCCCCCCCCN.NCCN.NCCN.[Cl-].[Co+3].[O-][Cl+3]([O-])([O-])[O-].[O-][Cl+3]([O-])([O-])[O-] [cis-[Co(en)2(C14H29NH2)Cl](ClO4)2] | 25900 |  | 
7 | CC(=O)[O-].CC(=O)[O-].O.O.O.O.[Co+2] [cobalt acetate, Cobalt(II) acetate tetrahydrate] |  | > 200 | 
8 | Oc1ccccc1C=NCCN=Cc1ccccc1O [salen, N,N’-bis(salicylidene)ethylenediamine] |  | > 200 | 
9 | Oc1ccccc1C=Nc1ccccc1N=Cc1ccccc1O [salophen, N,N’-bis(salicylidene)-1,2-phenylenediamine] |  | > 200 | 
10 | [Co(dien)(CA)Cl2](ClO4) | 9005.2 |  | 
